Data reported in US11427548B2 (Arvinas Operations, Inc., priority 2015, dated 2022).
Like-named read-outs stand apart in the source and are kept apart here.

Target: T1, Androgen Receptor (Homo sapiens, UniProt P10275)
T1 construct: endogenous in cells; host or cells: VCaP cells
T1 sequence (P10275 1-920): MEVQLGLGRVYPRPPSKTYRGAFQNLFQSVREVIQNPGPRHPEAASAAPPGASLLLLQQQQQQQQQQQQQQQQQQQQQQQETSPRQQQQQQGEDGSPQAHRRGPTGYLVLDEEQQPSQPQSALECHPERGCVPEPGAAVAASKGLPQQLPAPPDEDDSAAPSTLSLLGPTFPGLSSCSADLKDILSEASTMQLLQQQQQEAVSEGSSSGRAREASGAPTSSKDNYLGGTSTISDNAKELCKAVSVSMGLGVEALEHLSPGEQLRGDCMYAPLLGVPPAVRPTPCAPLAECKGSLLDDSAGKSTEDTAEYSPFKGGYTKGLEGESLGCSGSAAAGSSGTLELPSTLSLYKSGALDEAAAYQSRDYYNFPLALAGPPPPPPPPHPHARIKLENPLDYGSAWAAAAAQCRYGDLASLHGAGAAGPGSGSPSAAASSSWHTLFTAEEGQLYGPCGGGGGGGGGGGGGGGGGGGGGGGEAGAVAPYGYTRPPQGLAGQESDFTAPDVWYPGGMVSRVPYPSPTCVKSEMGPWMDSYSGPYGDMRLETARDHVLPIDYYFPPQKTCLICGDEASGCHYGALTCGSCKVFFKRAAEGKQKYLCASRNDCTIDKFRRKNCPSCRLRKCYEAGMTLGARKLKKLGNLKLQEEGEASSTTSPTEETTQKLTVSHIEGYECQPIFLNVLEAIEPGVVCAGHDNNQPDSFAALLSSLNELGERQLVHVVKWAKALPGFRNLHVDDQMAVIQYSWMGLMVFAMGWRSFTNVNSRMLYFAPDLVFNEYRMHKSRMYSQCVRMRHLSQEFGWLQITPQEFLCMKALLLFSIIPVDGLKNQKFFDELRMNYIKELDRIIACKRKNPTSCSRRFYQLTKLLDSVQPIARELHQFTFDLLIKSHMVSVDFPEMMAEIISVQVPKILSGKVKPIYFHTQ
Assay: Androgen Receptor ELISA assay (PathScan AR ELISA) in VCaP cells: AR degradation, Dmax and DC50
Type: cell-based
Procedure, shortened: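 VCaP cells in phenol red-free RPMI with 5% charcoal-stripped FBS were grown at least 3 days, then given compound as 7 half-log doses in 0.1% DMSO with 0.1 nM R1881 for 24 h. Lysates went into a sandwich AR ELISA with TMB read at 450 nm.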

[1] = VCaP cells; Table 36; read-out: VCaP DC50
[2] = VCaP, VCaP cells; Table 36; read-out: VCaP Dmax (%)
[3] = read-out: VCaP DC50; VCaP cells; Table 36

| SMILES | DC50 [1] | Dmax [2] | Dmax (VCaP, read-out: VCaP Dmax (%)) | further results |
| --- | --- | --- | --- | --- |
| C#CCCC(=O)OC(CCOCCCOCC(=O)N[C@H](C(=O)N1C[C@H](O)C[C@H]1C(=O)N[C@@H](C)c1ccc(-c2scnc2C)cc1)C(C)(C)C)CCOc1ccc(N2C(=S)N(c3ccc(C#N)c(C(F)(F)F)c3)C(=O)C2(C)C)cc1 (stereo partly drawn) [Example 632, 1-(4-(3-(4-cyano-3-(trifluoromethyl)phenyl)-5,5-dimethyl-4-oxo-2-thioxoimidazolidin-1-yl)phenoxy)-5-(3-(2-(((S)-1-((2S,4R)-4-hydroxy-2-(((S)-1-(4-(4-mehtylthiazol-5-yl)phenyl)ethyl)carbam-oyl)pyrrolidin-1-yl)-3,3-dimethyl-1-oxobutan-2-yl)amino)-2-oxoethoxy)propoxy)pen-tan-3-yl pent-4-ynoate] | > 0.501 µM |  |  | VCaP Dmax (%) (VCaP cells; Table 36): ++ (26% ≤ Dmax ≤ 50%) |
| Cc1ncsc1-c1ccc([C@H](C)NC(=O)[C@@H]2C[C@@H](O)CN2C(=O)[C@@H](c2cc(N3CCN(CCCc4ccc(C(=O)N[C@H]5C(C)(C)[C@H](Oc6ccc(C#N)c(Cl)c6)C5(C)C)cc4)CC3)no2)C(C)C)cc1 [Example 797, (2S,4R)-1-((R)-2-(3-(4-(3-(4-(((1r,3r)-3-(3-chloro-4-cyanophenoxy)-2,2,4,4-tetramethylcyclobutyl)carbamoyl)phenyl)propyl)piperazin-1-yl)isoxazol-5-yl)-3-methylbutanoyl)-4-hydroxy-N-((S)-1-(4-(4-methylthiazol-5-yl)phenyl)ethyl)pyrrolidine-2-carboxamide] | < 0.05 µM | 51 to 70% |  |  |
| Cc1ncsc1-c1ccc([C@H](C)NC(=O)[C@@H]2C[C@@H](O)CN2C(=O)[C@H](C(C)C)N2Cc3ccc(N4CCN(CCCc5ccc(C(=O)N[C@H]6C(C)(C)[C@H](Oc7ccc(C#N)c(Cl)c7)C6(C)C)cc5)CC4)cc3C2=O)cc1 [Example 778, (2S,4R)-1-((S)-2-(6-(4-(3-(4-(((1r,3r)-3-(3-chloro-4-cyanophenoxy)-2,2,4,4-tetramethylcyclobutyl)carbamoyl)phenyl)propyl)piperazin-1-yl)-1-oxoisoindolin-2-yl)-3-methylbutanoyl)-4-hydroxy-N-((S)-1-(4-(4-methylthiazol-5-yl)phenyl)ethyl)pyrrolidine-2-carboxamide] | > 0.501 µM |  | < 25% |  |
| Cc1nccn1-c1ccc([C@H](C)NC(=O)C2C[C@@H](O)CN2C(=O)C(NC(=O)COCC2CCN(c3ccc(C(=O)N[C@H]4C(C)(C)[C@H](Oc5ccc(C#N)c(Cl)c5)C4(C)C)cn3)CC2)C(C)(C)C)cc1 (stereo partly drawn) [Example 606, N-((1r,3r)-3-(3-chloro-4-cyanophenoxy)-2,2,4,4-tetramethylcyclobutyl)-6-(4-((2-(((S)-1-((2S,4R)-4-hydroxy-2-(((S)-1-(4-(2-methyl-1H-imidazol-1-yl)phenyl)ethyl)carbam-oyl)pyrrolidin-1-yl)-3,3-dimethyl-1-oxobutan-2-yl)amino)-2-oxoethoxy)methyl)piper-idin-1-yl)nicotinamide] | < 0.05 µM | 51 to 70% |  |  |
| Cc1ncsc1-c1ccc([C@H](C)NC(=O)[C@@H]2CC(O)CN2C(=O)[C@H](C(C)C)n2nccc2OCCCCCNc2ccc(C(=O)N[C@H]3C(C)(C)[C@H](Oc4ccc(C#N)c(Cl)c4)C3(C)C)cc2)cc1 (stereo partly drawn) [Example 624, (2S,4R)-1-((S)-2-(5-((5-((4-(((1r,3r)-3-(3-chloro-4-cyanophenoxy)-2,2,4,4-tetramethylcyclobutyl)carbamoyl)phenyl)amino)pentyl)oxy)-1H-pyrazol-1-yl)-3-methylbutanoyl)-4-hydroxy-N-((S)-1-(4-(4-methylthiazol-5-yl)phenyl)ethyl)pyrrolidine-2-carboxamide] | > 0.501 µM | < 25% |  |  |
| Cc1ncsc1-c1ccc(C(C)NC(=O)C2CC(O)CN2C(=O)C(NC(=O)COCCCOCCCCCOc2ccc(N3C(=S)N(c4ccc(C#N)c(C(F)(F)F)c4)C(=O)C3(C)C)cc2)C2COC2)cc1 (stereo not shown) [Example 661, 1-(2-(2-(3-((5-(4-(3-(4-cyano-3-(trifluoromethyl)phenyl)-5,5-dimethyl-4-oxo-2-thioxoimidazolidin-1-yl)phenoxy)pentyl)oxy)propoxy)acetamido)-2-(oxetan-3-yl)acetyl)-4-hydroxy-N-(1-(4-(4-methylthiazol-5-yl)phenyl)ethyl)pyrrolidine-2-carboxamide] |  |  | < 25% | DC50 [3]: > 0.501 µM |
| Cc1ncsc1-c1ccc(CNC(=O)[C@@H]2C[C@@H](O)CN2C(=O)[C@@H](C(C)C)n2cc(OC3CCN(c4ccc(-c5ccc(N6C(=S)N(c7ccc(C#N)c(C(F)(F)F)c7)C(=O)C6(C)C)cc5)cn4)CC3)cn2)cc1 [Example 599, (2S,4R)-1-((R)-2-(4-((1-(5-(4-(3-(4-cyano-3-(trifluoromethyl)phenyl)-5,5-dimethyl-4-oxo-2-thioxoimidazolidin-1-yl)phenyl)pyridin-2-yl)piperidin-4-yl)oxy)-1H-pyrazol-1-yl)-3-methylbutanoyl)-4-hydroxy-N-(4-(4-methylthiazol-5-yl)benzyl)pyrrolidine-2-carboxamide] |  |  | 26 to 50% | DC50 [3]: > 0.501 µM |
| Cc1ncsc1-c1ccc([C@@H](CN(C)C)NC(=O)[C@@H]2C[C@@H](O)CN2C(=O)[C@@H](NC(=O)COCCCCCOc2ccc(C(=O)N[C@H]3C(C)(C)[C@H](Oc4ccc(C#N)c(Cl)c4)C3(C)C)cc2)C(C)(C)C)cc1 [Example 471] |  |  |  | DC50 (VCaP cells; Table 35; read-out: VCaP DC50): > 0.501 µM; Dmax (VCaP, VCaP cells; Table 35; read-out: VCaP Dmax (%)): 26 to 50% |
| Cc1ncsc1-c1ccc([C@H](C)NC(=O)C2C[C@@H](O)CN2C(=O)C(NC(=O)CN2C3CCC2CN(CCCCc2ccc(C(=O)N[C@H]4C(C)(C)[C@H](Oc5ccc(C#N)c(Cl)c5)C4(C)C)cn2)C3)C(C)(C)C)cc1 (stereo partly drawn) [Example 840, N-((1r,3r)-3-(3-chloro-4-cyanophenoxy)-2,2,4,4-tetramethylcyclobutyl)-6-(4-(8-(2-(((S)-1-((2S, 4R)-4-hydroxy-2-(((S)-1-(4-(4-methylthiazol-5-yl)phenyl)ethyl)carbamoyl)pyrrolidin-1-yl)-3,3-dimethyl-1-oxobutan-2-yl)amino)-2-oxoethyl)-3,8-diazabicyclo[3.2.1]octan-3-yl)butyl) nicotinamide] |  |  | > 71% | DC50 [3]: < 0.05 µM |
| Cc1ncsc1-c1ccc(CNC(=O)[C@@H]2C[C@@H](O)CN2C(=O)[C@@H](C(C)C)N2Cc3ccc(N4CCN(CCCc5ccc(C(=O)N[C@H]6C(C)(C)[C@H](Oc7ccc(C#N)c(Cl)c7)C6(C)C)cc5)CC4)cc3C2=O)cc1 [Example 773, (2S,4R)-1-((R)-2-(6-(4-(3-(4-(((1r,3r)-3-(3-chloro-4-cyanophenoxy)-2,2,4,4-tetramethylcyclobutyl)carbamoyl)phenyl)propyl)piperazin-1-yl)-1-oxoisoindolin-2-yl)-3-methylbutanoyl)-4-hydroxy-N-(4-(4-methylthiazol-5-yl)benzyl)pyrrolidine-2-carboxamide] | > 0.501 µM | < 25% |  |  |
| CN(C)c1ccc(CNC(=O)[C@@H]2C[C@@H](O)CN2C(=O)[C@@H](NC(=O)COCCCOCCCCCOc2ccc(N3C(=S)N(c4ccc(C#N)c(C(F)(F)F)c4)C(=O)C3(C)C)cc2)C(C)(C)C)cn1 [Example 451] |  |  | < 25% | DC50 (read-out: VCaP DC50; VCaP cells; Table 35): > 0.501 µM |
| Cc1ncsc1-c1ccc([C@H](C)NC(=O)[C@@H]2C[C@@H](O)CN2C(=O)[C@@H](NC(=O)COCCN2CCN(c3ccc(C(=O)N[C@H]4CC(Oc5ccc(C#N)c(Cl)c5)C4(C)C)cn3)CC2)C(C)(C)C)cc1 (stereo partly drawn) [Example 849, N-((1S)-3-(3-chloro-4-cyanophenoxy)-2,2-dimethylcyclobutyl)-6-(4-(2-(2-(((S)-1-((2S, 4R)-4-hydroxy-2-(((S)-1-(4-(4-methylthiazol-5-yl)phenyl)ethyl)carbamoyl)pyrrolidin-1-yl)-3,3-dimethyl-1-oxobutan-2-yl)amino)-2-oxoethoxy)ethyl)piperazin-1-yl)nicotinamide] | < 0.05 µM | 51 to 70% |  |  |
| CC(C)(C)[C@H](NC(=O)COCCCOCCCCCOc1ccc(N2C(=S)N(c3ccc(C#N)c(C(F)(F)F)c3)C(=O)C2(C)C)cc1)C(=O)N1C[C@H](O)C[C@H]1C(=O)NCc1ccc(Cl)cc1 [Example 14, (2S,4R)-N-[(4-chlorophenyl)methyl]-1-[(2S)-2-[2-(3-{[5-(4-{3-[4-cyano-3-(trifluoromethyl)phenyl]-5,5-dimethyl-4-oxo-2-sulfanylideneimidazolidin-1-yl}phenoxy)pentyl]oxy}propoxy)acetamido]-3,3-dimethylbutanoyl]-4-hydroxypyrrolidine-2-carboxamide] |  |  |  | DC50 (read-out: VCaP DC50; concentration that caused 50% Androgen Receptor degradation, VCaP cells): > 0.501 µM |
